Columns and labels:
BACE1 [1] = target: T1, BACE1 (Homo sapiens, UniProt P56817); assay: In Vitro Enzymatic BACE FRET (Fluorescence Resonance Energy Transfer) Assay; assay type: biochemical; settings: read-out: BACE1 FRET assay
Description: In Vitro Enzymatic BACE FRET (Fluorescence Resonance Energy Transfer) Assay (Enzyme Assay Data in the Example Tables I, II, III & IV) The assay buffer used in this screen is 0.05 M acetate, pH 4.2, 10% DMSO final, 100 uM genapol (which is a nonionic detergent, below its Critical Micelle Concentration). […] This assay is effectively started by the addition of FRET substrate (50 nM) and the combination is incubated for one hour. The FRET assay is terminated with by addition of Tris buffer, which raises the pH to neutrality, and the fluorescence is determined. The FRET substrate is a peptide with commercially available fluorophore and quencher, on opposite sides of the BACE cleavage site. […]

BACE1 [2] = target: T1, BACE1; assay: In Vitro BACE Cell-based Assay (HEK cell assay): Aβ40 in conditioned medium of cells stably expressing Amyloid Precursor Protein, sandwich ELISA; settings: read-out: HEK cell assay
Description: In Vitro BACE Cell-based Assay
The cell-based assay measures inhibition or reduction of Aβ40 in conditioned medium of test compound treated cells expressing amyloid precursor protein.
Cells stably expressing Amyloid Precursor Protein (APP) were plated at a density of 40K cells/well in 96 well plates (Costar). The cells were cultivated for 24 hours at 37° C. and 5% CO2 in DMEM supplemented with 10% FBS. The test compounds were then added to cells in 10-point dose response concentrations with the starting concentration being either 100 μM or 10 μM. The compounds were diluted from stock solutions in DMSO and the final DMSO concentration of the test compounds on cells was 0.1%. After 24 h of incubation with the test compounds the supernatant conditioned media was collected and the Aβ 40 levels were determined using a sandwich ELISA. The IC50 of the compound was calculated from the percent of control or percent inhibition of Aβ 40 as a function of the concentration of the test compound.
The sandwich ELISA to detect Aβ 40 was performed in 96 well microtiter plates, which were pre-treated with goat anti-rabbit IgG (Pierce). The capture and detecting antibody pair that were used to detect Aβ 40 from cell supernatants were affinity purified pAb40 (Biosource) and biotinylated 6E10 (Signet Labs Inc.), respectively. The optimal concentration for the pAb40 antibody was 3 μg/ml in Superblock/TBS (Pierce) that was supplemented with 0.05% Tween 20 (Sigma).
Cellular supernatants were incubated with the capture antibody for 3 h at 4° C., followed by 3 wash steps in TBS-tween (0.05%). The detecting antibody incubation was for 2 h at 4° C., again followed by the wash steps as described previously. The final readout of the ELISA is Time-Resolved Fluorescence (counts per minute) using Delfia reagents Streptavidin-Europium and Enhancement solutions (Perkin Elmer) and the Victor 2 multilabel counter (Perkin Elmer).

T1 sequence (P56817 46-501, species assumed): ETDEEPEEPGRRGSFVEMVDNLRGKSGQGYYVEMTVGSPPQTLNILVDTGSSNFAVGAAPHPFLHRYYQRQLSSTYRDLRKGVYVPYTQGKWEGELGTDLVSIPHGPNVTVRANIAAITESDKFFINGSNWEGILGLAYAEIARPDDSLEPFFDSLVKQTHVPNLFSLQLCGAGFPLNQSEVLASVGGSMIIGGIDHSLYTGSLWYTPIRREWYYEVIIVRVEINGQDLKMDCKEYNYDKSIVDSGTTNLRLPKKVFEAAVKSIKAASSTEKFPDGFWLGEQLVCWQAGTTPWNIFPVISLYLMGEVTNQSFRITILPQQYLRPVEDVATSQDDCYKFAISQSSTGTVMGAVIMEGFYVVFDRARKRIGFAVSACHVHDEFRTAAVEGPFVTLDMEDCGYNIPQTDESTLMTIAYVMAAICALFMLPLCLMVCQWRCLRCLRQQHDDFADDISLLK

SMILES | IC50 (BACE1 [1]; Table IV, class symbols) [µM] | IC50 (BACE1 [2]; Table IV, class symbols) [µM] | IC50 (BACE1 [1]) [µM] | further results
CC(C)(C#N)COc1cc2c(cc1F)Oc1ccc(-c3cccnc3)cc1[C@@]21COC(N)=N1 [compound 547] | < 0.1 | < 0.1 | – | –
NC1=NC2(CO1)c1cnccc1Oc1ccc(-c3cccnc3)cc12 (stereo not drawn) [compound 648] | 1 to 5 | 1 to 5 | – | –
Cc1noc(C)c1-c1ccc2c(c1)[C@]1(COC(N)=N1)c1cc(OCC(C)(C)C)ccc1O2 [compound 189] | – | – | – | IC50 (BACE1 [1]; Table III, IC50's in uM ranges): 0.1 to 1 µM; IC50 (BACE1 [2]; Table III, IC50's in uM ranges): > 5 µM
COC1CN(c2cnc3c(c2)[C@]2(COC(N)=N2)c2cc(-c4cc(F)ccc4F)ccc2O3)C1 [compound 456] | – | – | < 0.1 | IC50 (BACE1 [2]; HEK cells): < 0.1 µM
Cn1cc(-c2cc(F)c3c(c2)[C@]2(COC(N)=N2)c2cc(-c4cncnc4)ccc2O3)cn1 [compound 511] | – | – | < 0.1 | IC50 (BACE1 [2]; HEK cells): < 0.1 µM
NC1=N[C@]2(CO1)c1cc(C3=CCOCC3)ccc1Oc1cnc(-c3ccccc3F)cc12 [compound 498] | – | – | < 0.1 | IC50 (BACE1 [2]; HEK cells): 0.1 to 1 µM
NC1=N[C@]2(CO1)c1cc(-c3cccnc3)ccc1Oc1ncc(-c3cccnc3)cc12 [compound 157] | – | – | – | IC50 (BACE1 [1]; Table III, IC50's in uM ranges): < 0.1 µM; IC50 (BACE1 [2]; Table III, IC50's in uM ranges): < 0.1 µM
CC(C)(C#N)COc1ccc2c(c1)[C@]1(COC(N)=N1)c1cc(-c3cccnc3)ccc1O2 [Example 134, (S)-3-(2-amino-2′-(pyridin-3-yl)-5H-spiro[oxazole-4,9′-xanthene]-7′-yloxy)-2,2-dimethylpropanenitrile] | – | – | – | IC50 (BACE1 [1]; Table III, IC50's in uM ranges): < 0.1 µM; IC50 (BACE1 [2]; Table III, IC50's in uM ranges): < 0.1 µM
CC1CCN(c2cc3c(cn2)Oc2ccc(-c4cccnc4)cc2[C@@]32COC(N)=N2)CC1 [compound 441] | – | – | < 0.1 | IC50 (BACE1 [2]; HEK cells): < 0.1 µM
CC1(C)C=C(c2cnc3c(c2)[C@]2(COC(N)=N2)c2cc(-c4cccnc4)ccc2O3)CCO1 [compound 481] | – | – | < 0.1 | IC50 (BACE1 [2]; HEK cells): < 0.1 µM
CC(C)(C)COc1cnc2c(c1)[C@]1(COC(N)=N1)c1cc(-c3ccc(F)nc3)ccc1O2 [compound 470] | – | – | < 0.1 | IC50 (BACE1 [2]; HEK cells): < 0.1 µM
NC1=N[C@]2(CO1)c1cc(OCC3CCOC3)ccc1Oc1ccc(-c3cncnc3)cc12 (stereo partly drawn) [Example 132, (S)-2′-(pyrimidin-5-yl)-7′-((tetrahydrofuran-3-yl)methoxy)-5H-spiro[oxazole-4,9′-xanthen]-2-amine] | – | – | – | IC50 (BACE1 [1]; Table III, IC50's in uM ranges): 1 to 5 µM; IC50 (BACE1 [2]; Table III, IC50's in uM ranges): > 5 µM
NC1=N[C@]2(CO1)c1cc(-c3cncnc3)ccc1Oc1cccnc12 [compound 527] | – | – | 0.1 to 1 | IC50 (BACE1 [2]; HEK cells): 0.1 to 1 µM
NC1=N[C@@]2(CO1)c1cc(-c3cc(Cl)ccc3F)ccc1Oc1cnc(C3=CCOCC3)cc12 [compound 424] | – | – | < 0.1 | IC50 (BACE1 [2]; HEK cells): < 0.1 µM
COc1ccc2c(c1)[C@]1(COC(N)=N1)c1cc(-c3cnc4ccccc4c3)ccc1O2 [compound 633] | 1 to 5 | 1 to 5 | – | –
NC1=N[C@]2(CO1)c1ccccc1Oc1ccc(C(=O)NC3CCCCC3)cc12 [compound 621] | > 5 | > 5 | – | –
COC(C)(C)COc1cnc2c(c1)[C@]1(COC(N)=N1)c1cc(-c3ccccc3)ccc1O2 [compound 350] | – | – | – | IC50 (BACE1 [1]; in vitro BACE FRET enzyme assay, IC50 class symbols): < 0.1 µM; IC50 (BACE1 [2]; HEK cell-based assay, Aβ40 in conditioned medium, IC50 class symbols): < 0.1 µM
COc1cc2c(cc1F)Oc1ccc(-c3cncnc3)cc1[C@@]21COC(N)=N1 [154b] | – | – | – | IC50 (BACE1 [1]; Table III, IC50's in uM ranges): < 0.1 µM; IC50 (BACE1 [2]; Table III, IC50's in uM ranges): 0.1 to 1 µM
NC1=N[C@]2(CO1)c1ccccc1Oc1ccc(-c3cncc4ccccc34)cc12 [compound 629] | 1 to 5 | > 5 | – | –
COc1ncc(-c2ccc3c(c2)[C@]2(COC(N)=N2)c2cc(OCC(C)(C)C)ccc2O3)cn1 [compound 188] | – | – | – | IC50 (BACE1 [1]; Table III, IC50's in uM ranges): 0.1 to 1 µM; IC50 (BACE1 [2]; Table III, IC50's in uM ranges): 1 to 5 µM
CC(C)(O)COc1ccc2c(c1)[C@]1(COC(N)=N1)c1cc(Br)ccc1O2 [compound 210] | – | – | – | IC50 (BACE1 [1]; Table III, IC50's in uM ranges): 1 to 5 µM; IC50 (BACE1 [2]; Table III, IC50's in uM ranges): 1 to 5 µM
NC1=N[C@]2(CO1)c1cc(Oc3ccccn3)ccc1Oc1ccc(-c3cncnc3)cc12 [compound 209] | – | – | – | IC50 (BACE1 [1]; Table III, IC50's in uM ranges): < 0.1 µM; IC50 (BACE1 [2]; Table III, IC50's in uM ranges): 0.1 to 1 µM
CC(C)(C)OC(=O)n1c(-c2ccc3c(c2)[C@@]2(COC(N)=N2)c2ccccc2O3)cc2ccccc21 [compound 568] | > 5 | > 5 | – | –
NC1=N[C@@]2(CO1)c1cc(-c3cccnc3)ccc1Oc1cc(F)c(C3=CCOCC3)cc12 [compound 476] | – | – | < 0.1 | IC50 (BACE1 [2]; HEK cells): < 0.1 µM
CCCOc1ccc2c(c1)C1(COC(N)=N1)c1cc(-c3cncnc3)ccc1O2 (stereo not drawn) [Example 9, 2′-propoxy-7′-(5-pyrimidinyl)spiro[1,3-oxazole-4,9′-xanthen]-2-amine] | – | – | – | IC50 (BACE1 [1]; Table 1): < 0.1 µM; IC50 (BACE1 [2]; Table 1, Aβ40, 24 h incubation): 0.1 to 1 µM
COc1ccc2c(c1)[C@]1(COC(N)=N1)c1cc(-c3ccnc4ccccc34)ccc1O2 [compound 589] | 1 to 5 | 1 to 5 | – | –

Now from value to molecule, other results behind:

IC50 (BACE1 [1]; Table IV, class symbols) [µM] | IC50 (BACE1 [2]; Table IV, class symbols) [µM] | IC50 (BACE1 [1]) [µM] | SMILES | further results
< 0.1 | 0.1 to 1 | – | CC(C)(C)C#Cc1ccc2c(c1)[C@@]1(COC(N)=N1)c1cc(C#CC(C)(C)C)cnc1O2 [compound 897] | –
– | – | < 0.1 | CC(C)(C)COc1ccc2c(c1)[C@@]1(COC(N)=N1)c1cc(-c3ccc(OCC(F)(F)F)nc3)cnc1O2 [compound 740] | IC50 (BACE1 [2]): < 0.1 µM
– | – | < 0.1 | CC(C)(C)COc1ccc2c(c1)[C@@]1(COC(N)=N1)c1cc(-c3ccnc(F)c3)cnc1O2 [compound 752] | IC50 (BACE1 [2]): < 0.1 µM
– | – | 1 to 5 | NC1=N[C@]2(CO1)c1cc(-c3cccc(F)c3)ccc1Oc1ncc(C3=CCOCC3)cc12 [compound 690] | IC50 (BACE1 [2]): > 5 µM
– | – | < 0.1 | CC(C)(C)C#Cc1cnc2c(c1)[C@]1(COC(N)=N1)c1cc(-c3ccc(F)nc3)ccc1O2 [compound 766] | IC50 (BACE1 [2]): < 0.1 µM
0.1 to 1 | > 5 | – | Cc1nc(C)c(-c2ccc3c(c2)[C@@]2(COC(N)=N2)c2cc(OCC(C)(C)C)ccc2O3)s1 [compound 837] | –
< 0.1 | < 0.1 | – | Cc1ccc(-c2ccc3c(c2)[C@]2(COC(N)=N2)c2cc(-c4cncnc4)ccc2O3)o1 [compound 880] | –
< 0.1 | 0.1 to 1 | – | CC(C)(C)COc1ccc2c(c1)[C@]1(COC(N)=N1)c1cc(-c3cccnn3)ccc1O2 [compound 649] | –
– | – | < 0.1 | CC(C)(C)COc1ccc2c(c1)[C@@]1(COC(N)=N1)c1cc(-c3ccc(F)nc3)cnc1O2 [compound 951] | IC50 (BACE1 [2]): < 0.1 µM
> 5 | > 5 | – | CC(C)CCCOc1nccc2c1[C@@]1(COC(N)=N1)c1cc(-c3cccnc3)ccc1O2 [compound 843] | –
< 0.1 | < 0.1 | – | CC(C)(C)C#Cc1cnc2c(c1)[C@]1(COC(N)=N1)c1cc(-c3cnccn3)ccc1O2 [compound 654] | –
– | – | < 0.1 | COC(=O)c1ccc(-c2ccc3c(c2)[C@]2(COC(N)=N2)c2cc(-c4cccnc4)ccc2O3)s1 [compound 722] | IC50 (BACE1 [2]): < 0.1 µM
– | – | 0.1 to 1 | CN(C)c1ncc(-c2ccc3c(c2)[C@]2(COC(N)=N2)c2cc(OCC(C)(C)C)ccc2O3)cn1 [compound 780] | IC50 (BACE1 [2]): 1 to 5 µM
0.1 to 1 | 0.1 to 1 | – | CCOC(=O)/C=C/c1ccc2c(c1)[C@]1(COC(N)=N1)c1cc(-c3cncnc3)ccc1O2 [compound 825] | –
– | – | 1 to 5 | COc1ccc2c(c1)[C@@]1(COC(N)=N1)c1cc(-c3cncnc3)cnc1O2 [compound 669] | IC50 (BACE1 [2]): 1 to 5 µM
– | – | < 0.1 | CC(C)(O)COc1ccc2c(c1Br)[C@]1(COC(N)=N1)c1cc(-c3cccnc3)ccc1O2 [compound 944] | IC50 (BACE1 [2]): < 0.1 µM
– | – | > 5 | CC(C)(C)OC(=O)Cc1ccc2c(c1)[C@]1(COC(N)=N1)c1cc(Br)ccc1O2 [compound 707] | IC50 (BACE1 [2]): > 5 µM
– | – | < 0.1 | CC1(COc2ccc3c(c2)[C@]2(COC(N)=N2)c2cc(-c4ccccc4F)cnc2O3)COC1 [compound 746] | IC50 (BACE1 [2]): 0.1 to 1 µM
– | – | > 5 | NC1=N[C@@]2(CO1)c1cc(-c3cncnc3)ccc1Oc1cc(OCC(F)(F)F)c(F)cc12 [compound 987] | IC50 (BACE1 [2]): > 5 µM
– | – | 0.1 to 1 | CC(C)(C)COc1ccc2c(c1)[C@]1(COC(N)=N1)c1cc(C3=CCOCC3)ccc1O2 [compound 755] | IC50 (BACE1 [2]): 1 to 5 µM
– | – | 1 to 5 | COC(C)(C)C#Cc1cnc2c(c1)[C@]1(COC(N)=N1)c1cc(-c3ccnc(F)c3)ccc1O2 [compound 687] | IC50 (BACE1 [2]): > 5 µM
0.1 to 1 | 1 to 5 | – | CC(C)(C)COc1ccc2c(c1)[C@]1(COC(N)=N1)c1cc(-c3ncccn3)ccc1O2 [compound 885] | –

— patent US8426447B2, “Spiro-tricyclic ring compounds as beta-secretase modulators and methods of use” (Amgen Inc., priority 2008, dated 2013)
